Laboratory results as given in the supplement of paper PMC6045584.
± gives the standard deviation of the averaged measurements.

Experiments:
ABT-737 = compound: CN(C)CC[C@H](CSc1ccccc1)Nc1ccc(S(=O)(=O)NC(=O)c2ccc(N3CCN(Cc4ccccc4-c4ccc(Cl)cc4)CC3)cc2)cc1[N+](=O)[O-] [ABT-737]; test: surviving fraction relative to DMSO-only wells; higher = less growth inhibition; conditions: exposure time: 5 days
Procedure, shortened: (§1)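 Inhibitors were tested at 0.5, 1, 5, 10, 50, 100, 500 and 1000 nM, applied continuously for five days beginning 24 hours after log-phase tumour cells were seeded at 250–500 per well in 384-well plates. CellTiter-Glo luminescence served as the viability measure, expressed as surviving fraction against the median of DMSO-only wells. Each line, screened three times, was kept only with replicate Pearson r >0.7 and median Z' >0.3.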

NUTLIN3 = compound: COc1ccc(C2=N[C@@H](c3ccc(Cl)cc3)[C@@H](c3ccc(Cl)cc3)N2C(=O)N2CCNC(=O)C2)c(OC(C)C)c1 [NUTLIN3]; test: as above; conditions: exposure time: 5 days
Procedure, shortened: as §1

Test System	surviving fraction (ABT-737; 0.5 nM)	surviving fraction (ABT-737; 1 nM)	surviving fraction (ABT-737; 5 nM)	surviving fraction (ABT-737; 10 nM)	surviving fraction (ABT-737; 50 nM)	surviving fraction (ABT-737; 100 nM)	surviving fraction (ABT-737; 500 nM)	surviving fraction (ABT-737; 1000 nM)	surviving fraction (NUTLIN3; 0.5 nM)	surviving fraction (NUTLIN3; 1 nM)	surviving fraction (NUTLIN3; 5 nM)	surviving fraction (NUTLIN3; 10 nM)	surviving fraction (NUTLIN3; 50 nM)	surviving fraction (NUTLIN3; 100 nM)	surviving fraction (NUTLIN3; 500 nM)	surviving fraction (NUTLIN3; 1000 nM)
SUM44 BREAST	1.28 ± 0.43	1.31 ± 0.53	1.32 ± 0.44	1.3 ± 0.53	1.28 ± 0.48	1.25 ± 0.48	1.2 ± 0.42	1.1 ± 0.34	0.96 ± 0.028	0.915 ± 0.056	1.02 ± 0.03	1.04 ± 0.051	1.09 ± 0.055	1.06 ± 0.017	1.07 ± 0.084	0.964 ± 0.063
MDAMB134 BREAST	1.1 ± 0.12	0.848 ± 0.18	0.786 ± 0.071	0.831 ± 0.016	0.908 ± 0.096	0.914 ± 0.063	0.764 ± 0.04	0.471 ± 0.033	1.03 ± 0.011	0.923 ± 0.0071	1.013 ± 0.0085	0.84 ± 0.11	1.125 ± 0.0021	1.07 ± 0.032	1.021 ± 0.0042	0.896 ± 0.028
MHM BONE	1.03 ± 0.053	1.08 ± 0.062	1.07 ± 0.045	1.1 ± 0.046	1.07 ± 0.034	1.15 ± 0.013	1.09 ± 0.015	1.12 ± 0.015	0.995 ± 0.017	0.998 ± 0.019	1.03 ± 0.028	1.02 ± 0.024	1.01 ± 0.023	1.02 ± 0.046	0.963 ± 0.018	0.9187 ± 0.0085
HCT15 LARGE INTESTINE	1.02 ± 0.1	1.02 ± 0.14	1.02 ± 0.12	1.02 ± 0.17	1.1 ± 0.073	1.08 ± 0.094	1.03 ± 0.11	1.09 ± 0.029	1.01 ± 0.038	1.01 ± 0.013	1.01 ± 0.018	0.992 ± 0.013	1.05 ± 0.034	1.07 ± 0.061	1.04 ± 0.056	1.01 ± 0.017
VCAP PROSTATE	1.03 ± 0.065	0.971 ± 0.075	1.14 ± 0.15	1.04 ± 0.047	1.17 ± 0.078	1.13 ± 0.19	1.01 ± 0.1	0.94 ± 0.047	1.03 ± 0.066	1.13 ± 0.049	1.17 ± 0.088	1.25 ± 0.2	1.18 ± 0.24	1.18 ± 0.023	1.03 ± 0.14	1.11 ± 0.027
HCC78 LUNG	0.9693 ± 0.0035	0.955 ± 0.076	0.969 ± 0.1	1.08 ± 0.15	1.04 ± 0.062	0.92 ± 0.2	0.967 ± 0.19	0.939 ± 0.2	1 ± 0.075	0.918 ± 0.053	0.918 ± 0.19	0.883 ± 0.18	0.946 ± 0.12	0.877 ± 0.11	0.889 ± 0.12	0.941 ± 0.07
SUM149.B1*.S BREAST	1.13 ± 0.027	1.1 ± 0.072	1.16 ± 0.021	1.12 ± 0.034	1.12 ± 0.057	1.11 ± 0.069	1.1 ± 0.024	1.16 ± 0.055	1.03 ± 0.045	1.07 ± 0.0015	1.05 ± 0.011	1.07 ± 0.022	1.13 ± 0.037	1.12 ± 0.017	1.14 ± 0.024	1.11 ± 0.04
NY BONE	0.986 ± 0.029	1.02 ± 0.032	1.09 ± 0.064	1.09 ± 0.03	1.07 ± 0.012	1.071 ± 0.0072	0.99 ± 0.017	0.957 ± 0.035	1 ± 0.019	0.95 ± 0.034	0.997 ± 0.033	1.015 ± 0.0098	1.05 ± 0.048	1.01 ± 0.034	0.925 ± 0.036	0.972 ± 0.012
CHLA90 AUTONOMIC GANGLIA	0.98 ± 0.054	0.955 ± 0.068	0.961 ± 0.043	0.99 ± 0.091	1.02 ± 0.064	1.01 ± 0.12	0.979 ± 0.093	0.997 ± 0.13	1.02 ± 0.018	1.05 ± 0.043	1 ± 0.039	0.923 ± 0.025	0.987 ± 0.049	1.01 ± 0.019	1.06 ± 0.022	1.02 ± 0.066
SAOS2 BONE	1.18 ± 0.037	1.18 ± 0.056	1.21 ± 0.098	1.19 ± 0.082	1.27 ± 0.061	1.13 ± 0.059	1.14 ± 0.12	1.08 ± 0.018	1.16 ± 0.028	0.981 ± 0.037	1.13 ± 0.043	1.09 ± 0.048	1.15 ± 0.017	1.2 ± 0.029	1.12 ± 0.033	1.043 ± 0.0023
SNU475 LIVER	1.07 ± 0.017	1 ± 0.018	1.08 ± 0.083	1.05 ± 0.064	1.02 ± 0.039	1 ± 0.12	1.01 ± 0.061	0.972 ± 0.047	1.02 ± 0.066	0.981 ± 0.017	0.988 ± 0.045	0.984 ± 0.032	1 ± 0.028	1.03 ± 0.071	1.021 ± 0.009	1 ± 0.02
HSSYII SYNOVIAL	1.03 ± 0.064	0.999 ± 0.044	0.99 ± 0.043	0.972 ± 0.045	1.12 ± 0.054	0.859 ± 0.041	0.637 ± 0.017	0.54 ± 0.079	0.951 ± 0.02	0.904 ± 0.051	0.976 ± 0.041	0.9313 ± 0.0089	0.942 ± 0.053	0.91 ± 0.035	0.676 ± 0.058	0.43 ± 0.04
LNCAP PROSTATE	0.971 ± 0.034	0.971 ± 0.041	0.932 ± 0.065	0.882 ± 0.025	0.973 ± 0.035	0.932 ± 0.04	0.914 ± 0.05	0.856 ± 0.1	1.03 ± 0.034	1.01 ± 0.078	0.955 ± 0.065	1 ± 0.086	0.956 ± 0.073	0.803 ± 0.089	0.491 ± 0.12	0.289 ± 0.011
SCC90 HEADNECK	1.05 ± 0.077	1.05 ± 0.11	1.14 ± 0.12	1.14 ± 0.073	1.09 ± 0.046	1.11 ± 0.097	0.949 ± 0.05	0.853 ± 0.087	1.05 ± 0.051	1.04 ± 0.22	1.13 ± 0.15	1.11 ± 0.23	1.12 ± 0.12	1.02 ± 0.026	0.997 ± 0.098	1.04 ± 0.098
HOSMNG BONE	0.879 ± 0.057	0.942 ± 0.099	0.888 ± 0.06	0.893 ± 0.073	0.928 ± 0.072	1 ± 0.075	0.921 ± 0.12	0.944 ± 0.11	1.04 ± 0.056	1.03 ± 0.033	0.979 ± 0.098	0.975 ± 0.076	1.09 ± 0.025	1.12 ± 0.013	1.12 ± 0.026	1.13 ± 0.023
JURKAT HAEMATOPOIETIC AND LYMPHOID TISSUE	1.04 ± 0.026	1.04 ± 0.029	1.05 ± 0.024	1.02 ± 0.028	0.949 ± 0.025	0.932 ± 0.035	0.752 ± 0.041	0.549 ± 0.0064	1.11 ± 0.031	1.1 ± 0.015	1.07 ± 0.015	1.06 ± 0.017	1.05 ± 0.078	1.03 ± 0.012	1.02 ± 0.022	1.03 ± 0.013
143B BONE	1.08 ± 0.042	1.09 ± 0.027	1.14 ± 0.092	1.11 ± 0.071	1.13 ± 0.054	1.115 ± 0.0057	1.12 ± 0.037	1.14 ± 0.064	1.04 ± 0.019	1.02 ± 0.022	1.03 ± 0.029	1.024 ± 0.0085	1.06 ± 0.039	1.029 ± 0.0099	1.05 ± 0.017	1.01 ± 0.073
